Structures are written as SMILES. pKi: −log10 of the molar value.

Experiment [1] concerns the target T1, brain serotonin 5-HT2 receptor (Homo sapiens, UniProt P28223).
T1 construct: from tissue; host or cells: brain
Briefly: In vitro binding, brain serotonin 5-HT2 receptor. Particulars: dihydrochloride salt; read-out: binding affinity K1.

In experiment [2] the test system is mice. Briefly: Standard apomorphine climbing mouse assay. The format is in vivo. Particulars: p.o. An excerpt:
The methods and procedures used can be found in Warawa et al., J. Med. Chem., 2001, 44 (3), 372-389, and are incorporated herein by reference.

Another experiment deals with T2, dopamine D1 receptor (Homo sapiens, UniProt P21728).
T2 construct: from tissue; host or cells: brain
T2 sequence (P21728 whole entry): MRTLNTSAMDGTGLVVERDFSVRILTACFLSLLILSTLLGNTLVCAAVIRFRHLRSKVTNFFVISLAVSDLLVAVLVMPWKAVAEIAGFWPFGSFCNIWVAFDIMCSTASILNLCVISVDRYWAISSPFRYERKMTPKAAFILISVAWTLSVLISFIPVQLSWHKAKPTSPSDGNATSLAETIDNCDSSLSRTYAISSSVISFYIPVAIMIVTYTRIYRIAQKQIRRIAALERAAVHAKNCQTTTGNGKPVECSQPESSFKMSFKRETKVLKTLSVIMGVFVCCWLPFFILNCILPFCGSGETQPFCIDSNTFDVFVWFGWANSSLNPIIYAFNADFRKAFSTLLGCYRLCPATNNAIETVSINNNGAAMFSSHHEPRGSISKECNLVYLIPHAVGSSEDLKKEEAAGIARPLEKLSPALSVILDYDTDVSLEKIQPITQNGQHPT
Kind of experiment: In vitro binding, dopamine D1 receptor. The following applies: dihydrochloride salt; read-out: binding affinity K1.

The next experiment has as its target dopamine D2 receptor (Homo sapiens, UniProt P14416). Briefly: In vitro binding, dopamine D2 receptor. Particulars: dihydrochloride salt; read-out: binding affinity K1.
The subject of experiment [3] is mice. Kind of experiment: Mouse forced swim test. In kind it is in vivo. Particulars: 5.0, 10.0 and 20.0 mg/kg sc, 15 minutes prior. The protocol:
Methods: Mice were placed in cylinders of water (25.0° C.±1.5° C.) for 6 minutes. The amount of immobility was quantified during the last 4 minutes of each session. The experimental observer was blind to the treatment conditions. […] Imipramine 45.0 mg/kg and citalopram 15.0 mg/kg were measured as the salt and administered ip 60 minutes prior to the behavioural session.

The test system of experiment [4] is mice. Briefly: Tail suspension test. In kind it is in vivo, mouse. Particulars: 30 mg/kg p.o., 60 minutes prior. On the procedure:
Antidepressant activity of 11-piperazin-1-yldibenzo[b,f][1,4]thiazepine was assessed in mice according to the tail suspension test. As shown in the results below, 11-piperazin-1-yldibenzo[b,f][1,4]thiazepine has antidepressant activity in mice.
In a first experiment, mice (n=10/group) were treated with vehicle, 2.0, 5.0, or 10.0 mg/kg of 11-piperazin-1-yldibenzo[b,f][1,4]thiazepine s.c. 15 minutes prior to the test session. Mice were suspended from their tails for 7 minutes. During the last 5 minutes of the test, the duration of immobility was recorded. In a second experiment, mice (n=10/group) were treated with vehicle, 30 mg/kg 11-piperazin-1-yldibenzo[b,f][1,4]thiazepine, or 30 mg/kg fluoxetine p.o. 60 minutes prior to the test session. Mice were suspended from their tails for 7 minutes. During the last 5 minutes of the test, the duration of immobility was recorded.

T1 sequence (P28223 whole entry): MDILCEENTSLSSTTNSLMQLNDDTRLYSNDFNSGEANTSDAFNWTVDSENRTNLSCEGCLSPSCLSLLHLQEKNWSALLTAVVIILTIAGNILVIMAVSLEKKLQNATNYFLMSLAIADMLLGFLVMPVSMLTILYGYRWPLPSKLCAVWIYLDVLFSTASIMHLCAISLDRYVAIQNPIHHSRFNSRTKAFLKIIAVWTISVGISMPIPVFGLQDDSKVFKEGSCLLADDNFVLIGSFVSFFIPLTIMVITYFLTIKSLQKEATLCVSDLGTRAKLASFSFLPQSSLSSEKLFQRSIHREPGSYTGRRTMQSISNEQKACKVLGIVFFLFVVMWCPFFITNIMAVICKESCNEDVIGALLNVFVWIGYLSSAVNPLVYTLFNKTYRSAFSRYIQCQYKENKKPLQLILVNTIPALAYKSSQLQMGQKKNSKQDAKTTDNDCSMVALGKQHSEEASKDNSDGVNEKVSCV
Chain of dopamine D2 receptor (P14416 whole entry): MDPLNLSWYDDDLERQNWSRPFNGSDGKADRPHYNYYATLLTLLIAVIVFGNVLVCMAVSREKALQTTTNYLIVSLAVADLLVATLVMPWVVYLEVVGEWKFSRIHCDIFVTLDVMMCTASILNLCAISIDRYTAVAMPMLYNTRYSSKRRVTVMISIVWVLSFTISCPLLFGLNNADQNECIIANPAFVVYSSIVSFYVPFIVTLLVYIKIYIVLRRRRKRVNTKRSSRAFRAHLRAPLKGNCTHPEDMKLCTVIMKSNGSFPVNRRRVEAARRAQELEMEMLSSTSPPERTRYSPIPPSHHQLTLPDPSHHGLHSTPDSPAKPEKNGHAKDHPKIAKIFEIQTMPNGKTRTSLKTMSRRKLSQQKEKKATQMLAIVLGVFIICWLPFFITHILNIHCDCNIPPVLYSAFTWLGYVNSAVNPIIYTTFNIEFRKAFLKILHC

With `Cl.Cl.c1ccc2c(c1)N=C(N1CCNCC1)c1ccccc1S2` [Example 2, 11-piperazin-1-yldibenzo[b,f][1,4]thiazepine, dihydrochloride salt], the values for the pKi (in experiment [1]; at dopamine D1 receptor; on dopamine D2 receptor) were 7.57, 5.83 and 6.63, respectively. Also, the “in vivo antipsychotic activity” value in the experiment on mice [2] is reported as “not found to be efficacious”.

With `OCCOCCN1CCN(C2=Nc3ccccc3Sc3ccccc32)CC1` [Quetiapine, reference compound], the “antidepressant effect (immobility)” value with mice [3] was “no effect”.

As to `CNCCC(Oc1ccc(C(F)(F)F)cc1)c1ccccc1` (stereo not shown) [fluoxetine, reference compound], the “reduction of immobility, fraction of that of the vehicle control group” value in the experiment with mice [4] was “more than ½”. In addition, the “duration of immobility compared to the vehicle control group” value with mice [4] (p<0.01) was “significantly reduced immobility”.

These data come from patent publication US20090093460A1, “Compositions” (AstraZeneca AB, priority 2003, published 2009).
